Data on eight molecules can be found in patent US4122184A, “Benzimidazole insecticides” (priority 1977, dated 1978).

One assay has as its system Melon Aphid. Nature of the assay: Melon Aphid Test. In kind it is in vivo, Aphis gossypii (Hemiptera). The settings on record: 250 ppm, 24 h. An excerpt:
Four blue hubbard squash seeds are planted per container in vermiculite and the containers watered from the bottom. After 6 days, the two weakest plants are cut off and one cotyledon and the primary leaves are removed from each of the two remaining plants. The remaining cotyledon is infested with 100 melon aphids from a stock colony by pinning the cotyledon against an aphid-infested squash cotyledon from the colony and allowing the aphids to transfer. After transfer, the colony leaf is removed. Forty-eight hours later, the infested leaves are sprayed to wetting with formulations containing graded amounts of the insecticide using a DeVilbiss atomizer at 10 psi held at 12-15 inches from the plant. Controls consist of two infested, unsprayed squash plants and two infested plants sprayed to wetting with a formulation containing 100 ppm malathion as a reference standard. The mortality is estimated 24 hours after spraying by observation using a 10 power dissecting microscope. The same rating scale is used as before.

A further assay relates to Two-spotted Spider Mite. The assay is described as follows: Two-spotted Spider Mite test. In kind it is in vivo, Tetranychus urticae (Acarina). The settings on record: 48 h. On the procedure:
The procedure in this test is the same as that in the previous aphid test, except that about 100 two-spotted spider mites from a stock colony raised on squash plants are transferred to a cut squash cotyledon. The mortality is estimated 48 hours after spraying. The same rating scale is used.

Another assay deals with Oriental Cockroach. The assay is described as follows: Oriental Roach Test. In kind it is in vivo, Blatta orientalis (Orthoptera). The note with it: 24 h. On the procedure: A rearing pan of late instar (3-4 months old) roaches is placed in a cold room for about 1 hour. Ten nymphs are taken from the pan and placed in each cage and the caged insects are kept at 70°-80° F. for 1 hour. The test cages are then sprayed in the manner indicated above in the milkweed bug test using 5 ml. of a formulation containing a specified amount of the insecticide. The test cages are held for 72 hours during which time the cockroaches are neither fed nor watered. Controls consist of 2 unsprayed cages, two cages sprayed with the formulation alone and 2 cages with a formulation containing 1000 ppm of heptachlor. Mortality counts are made 24 hours after spraying by shaking the cages lightly. All cockroaches remaining in the bottom are counted as dead.

For a further assay, the system named is Boll Weevil. Nature of the assay: Boll Weevil Test. The settings on record: 48 h. In kind it is in vivo, Anthonomus grandis (Coleoptera). An excerpt: The procedure is identical to that employed for the Mexican bean beetle and the Southern armyworm, except that 10 adult boll weevils are placed on cotton leaves that have been dipped into formulations of the test compounds. The same rating scale is used.

A further assay concerns Meadow Spittlebug. Nature of the assay: Field trial, stomach poison test. In kind it is in vivo. On the procedure: (§1) Leaves from the infested plant are treated with different concentrations of the test compounds, either by spraying with a DeVilbiss Special Atomizer (5004) at 10 psi or by dipping the leaves in solutions containing the compound. The leaves are then allowed to air dry.
(§2) After the leaves have dryed, they are placed in plastic petri dishes (100 × 25 mm), then the insects are counted out into each dish, five or ten insects per dish depending on the number of insects available. There are one or two replicates and usually two or three rates with each compound. Mortality results are taken at 24, 48 and 72 hours. The rating scale is 0 to 9.
(§3) Using the above methods, field trials were carried out against species of 5 orders of insects. The results, which are summarized in the following tables, give the average mortality for the particular insect with a given benzimidazole for each concentration employed. […] These tables contain all results obtained during the summer trials.

Assay [1] deals with Tarnished Plant Bug Adults. Nature of the assay: Field trial, stomach poison test. In kind it is in vivo. More on the design: key: mortality rating on a 0 to 9 scale. On the procedure: as §1, §2, §3
The subject of assay [2] is Unidentified Green Leafhopper. Nature of the assay: Field trial, stomach poison test. In kind it is in vivo. More on the design: key: mortality rating on a 0 to 9 scale. On the procedure: as §1, §2, §3
The test system of another assay is Squash Bug Adults. Nature of the assay: Field trial, contact poison test. In kind it is in vivo. Set-up: key: 0-9 rating: 0 = 0-10% mortality, 9 = 91-100% mortality.
From the text: (§4) Infested plants are placed in 6 oz. prescription bottles filled with water to keep them from wilting. Cellucotton is wrapped around the plant stem and squeezed into the bottle neck to prevent the insects from drowning.
(§5) A DeVilbiss Special Atomizer (5004) is used at 10 psi to spray the test plant with different concentrations of compounds. The atomizer is held at arm's length to prevent blowing the insects off the host plant. After treating, the bottles are placed on a table covered with brown wrapping paper to catch the dead insects as they drop from the plant. The plants are spaced so the leaves or plants are not touching one another.
(§6) The results are read at 24, 48, and 72 hours when applicable. The rating scale is 0 to 9 where 0 = 0-10 percent and 9 = 91-100 percent mortality.
as §3

Assay [3] deals with Southern Corn Rootworm Adults. Nature of the assay: Field trial, contact poison test. In kind it is in vivo.
From the text: as §4, §5, §6, §3

The next assay has as its system Yellow Mealworm Larvae. The assay is described as follows: Field trial, topical application. In kind it is in vivo. Set-up: key: 0 = 0-10% mortality, 9 = 91-100% mortality (0-9 scale). How it is done:
as §6
In a variation of the above test, 1 microliter of a test solution containing a predetermined number of micrograms of benzimidazole was applied directly to larvae or adult insects.
as §3

Another assay deals with Mexican Bean Beetle. The assay is described as follows: Mexican Bean Beetle Test. In kind it is in vivo, Epilachna varivestis (Coleoptera). The note with it: 48 h. How it is done: Cuttings of four six-day old Bountiful snap bean plants containing two leaves with approximately 5 square inches of leaf surface, are placed in water. The leaves are sprayed to wetting with about 5-10 ml. of a formulation containing a pre-determined level of the test compound. Half of the formulation is sprayed on the top surface and half on the bottom surface of the leaf using a DeVilbiss atomizer at 10 psi held at a distance of about 18 inches from the leaf. After the leaves have dried, they are cut from the stem and placed separately in petri dishes. Ten third instar, nonmolting Mexican bean beetle larvae grown on Bountiful snap beans are placed on each leaf. Controls consist of two leaves sprayed with 5 ml. of a 500 ppm malathion formulation (reference standard), two leaves sprayed with the formulation without the active ingredient and two leaves are held as untreated controls. After 48 hours, a mortality count is made and the amount of feeding noted. Moribund larvae are counted as dead.

The next assay deals with Milkweed Bug. Nature of the assay: Milkweed Bug Test. In kind it is in vivo, Oncopeltis fasciatus (Hemiptera). The settings on record: 48 h. On the procedure:
Ten adult milkweed bugs are chilled and placed in a test cage. The cages containing the bugs are sprayed with 5 ml. of a test formulation containing a pre-determined amount of the insecticide, using a DeVilbiss atomizer at 10 psi held 33 inches from the top of the cage. After the cage has been allowed to dry, the bugs are fed and watered for 48 hours. A formulation containing 500 ppm of malathion is used as a reference standard and two unsprayed cages are kept as controls. Mortality counts are made 48 hours after spraying. Moribund adults are considered dead. The same rating scale is employed as before.

The test system of assay [4] is House Fly. The assay is described as follows: Housefly (Stomach) Test. In kind it is in vivo, Musca domestica (Diptera). The note with it: 24 h. How it is done: Ten chilled house flies are taken from the rearing cage and placed in a covered petri dish. Sugar cubes treated with 0.2 ml. of a formulation containing a specified level of the insecticide are placed in the petri dish one hour after the flies have been removed from the chill room. Controls consist of sugar cubes treated with 0.2 ml. of deionized water and cubes treated with 0.2 ml. of a formulation containing 500 ppm of malathion. Mortality counts are made 24 hours later. The same rating scale is used as before.

For assay [5], the system named is House Fly. Nature of the assay: Housefly (Contact) Test. In kind it is in vivo, Musca domestica (Diptera). The note with it: 24 h. On the procedure: Rearing cages containing four-day old adult house flies are chilled at 35°-40° F. for about 1 hour. One hundred flies are transferred from the rearing cage to each test cage using a small scoop. The caged flies are kept for 1-2 hours at 70°-80° F. The cages are sprayed in the same manner as described for the milkweed bug with 5 ml. of the test formulation. Two unsprayed cages are held as controls and two cages are sprayed with a 50 ppm DDT formulation as a reference standard. Mortality counts are made 24 hours after spraying. […] The same rating scale is employed as heretofore.

The test system of assay [6] is Southern Corn Rootworm Adults. Nature of the assay: Field trial, stomach poison test. In kind it is in vivo. More on the design: key: mortality rating on a 0 to 9 scale. How it is done:
as §1, §2, §3

With `O=C(Oc1ccc([N+](=O)[O-])cc1)n1c(C(F)(F)F)nc2c([N+](=O)[O-])cc(C(F)(F)F)cc21` [N, p-nitrophenyl-4-nitro-2,6-bis(trifluoromethyl)-1-benzimidazolecarboxylate], the mortality rating is reported as 7.5 with Melon Aphid; 2.5 in the assay with Two-spotted Spider Mite (1 ppm); 1.5 with Two-spotted Spider Mite (5 ppm); 8.5 in the assay on Two-spotted Spider Mite (500 ppm); 4.5 in the assay on Oriental Cockroach (500 ppm); 5.5 in the assay on Oriental Cockroach (1000 ppm). Moreover, the mortality rating is on record as 1.5 in the assay with Boll Weevil (10 ppm) and 3.5 in the assay with Boll Weevil (25 ppm). The average mortality rating in the assay with Meadow Spittlebug (10 ppm) was 1; in the assay with Meadow Spittlebug (25 ppm) it was 1; with Meadow Spittlebug (50 ppm) it was 0 (0-10 percent); in [1] (10 ppm), 3; in assay [1] (25 ppm) it was 3; in [1] (50 ppm), 3. Also, the average mortality rating is reported as 0 (0-10 percent) in assay [2] (10 ppm); 1 in assay [2] (25 ppm); 3 in assay [2] (50 ppm); 1 in the assay with Squash Bug Adults (125 ppm); 6 in the assay on Squash Bug Adults (250 ppm); 5 in the assay with Squash Bug Adults (500 ppm). Further, the average mortality rating in the assay on Squash Bug Adults (750 ppm) is reported as 8; in assay [3] (25 ppm), 0 (0-10 percent); in assay [3] (50 ppm), 5; in assay [3] (100 ppm) it was 3; in the assay on Yellow Mealworm Larvae (0.03 μg/μl), 1; in the assay on Yellow Mealworm Larvae (0.07 μg/μl) it was 3. The molecule also came in with an average mortality rating with Yellow Mealworm Larvae (0.15 μg/μl) of 7.
As for `CC(COc1ccc(C(C)(C)C)cc1)OS(=O)OCCCl` (stereo not drawn) [Aramite, reference compound], the mortality rating with Two-spotted Spider Mite (50 ppm) was 7-9.
For `CCOC(=O)CC(SP(=S)(OC)OC)C(=O)OCC` (stereo not drawn) [Malathion, reference compound], the mortality rating with Mexican Bean Beetle (500 ppm) is listed as 7- 8; in the assay with Milkweed Bug (500 ppm), 7-8; in the assay with House Fly [4] (500 ppm), 6-7; in the assay with Boll Weevil (500 ppm) it was 7-8.
In the case of `ClC1=C(Cl)C2(Cl)C3C(Cl)C=CC3C1(Cl)C2(Cl)Cl` (stereo not drawn) [Heptachlor, reference compound], the mortality rating with Oriental Cockroach (1000 ppm) was 8-9.
As for `Clc1ccc(C(c2ccc(Cl)cc2)C(Cl)(Cl)Cl)cc1` [DDT, reference compound], the mortality rating in the assay with House Fly [5] (50 ppm) is on record as 6-8.
As for “mixture of 7-nitro-1-piperidinothionocarbonyl-2,5-bis(trifluoromethyl)benzimidazole and 4-nitro-1-piperidinothionocarbonyl-2,6-bis(trifluoromethyl)benzimidazole”, the average mortality rating was 1 in [6] (25 ppm); 7 in assay [6] (50 ppm); 3 in assay [6] (100 ppm); 0 (0-10 percent) in assay [3] (25 ppm); 9 (91-100 percent mortality) in assay [3] (50 ppm); 9 (91-100 percent mortality) in [3] (100 ppm). For the same molecule, the average mortality rating in the assay with Yellow Mealworm Larvae (0.03 μg/μl), in the assay on Yellow Mealworm Larvae (0.07 μg/μl) and in the assay with Yellow Mealworm Larvae (0.15 μg/μl) was 3 throughout.
On to “mixture of N-ethyl-4-nitro-2,6-bis(trifluoromethyl)thio-1-benzimidazolecarboxanilide and N-ethyl-nitro-2,5-bis(trifluoromethyl)thio-1-benzimidazolecarboxanilide”, for which the mortality rating was 1.5 in the assay on Mexican Bean Beetle (10 ppm); 6 (61-70) with Mexican Bean Beetle (25 ppm); 5.5 in the assay with Mexican Bean Beetle (50 ppm); 6.5 in the assay with Mexican Bean Beetle (100 ppm); 9 (91-100) in the assay with Mexican Bean Beetle (250 ppm); 9 (91-100) with Mexican Bean Beetle (500 ppm). Moreover, the mortality rating is reported as 9 (91-100) with Mexican Bean Beetle (1000 ppm); 5 (51-60) in the assay on Two-spotted Spider Mite (1000 ppm); 1 (11-20) with Milkweed Bug (1000 ppm); 6.5 in the assay with House Fly [5] (10 ppm); 8.5 with House Fly [5] (25 ppm); 8 (81-90) in the assay on House Fly [5] (50 ppm). The mortality rating is 8 (81-90) with House Fly [5] (100 ppm); 9 (91-100) in the assay with House Fly [5] (250 ppm); 9 (91-100) with House Fly [5] (500 ppm); 7 (71-80) in the assay with House Fly [5] (1000 ppm); 1 (11-20) in the assay on House Fly [4] (1000 ppm); 0 (0-10) in the assay on Oriental Cockroach (1000 ppm). The mortality rating with Boll Weevil (10 ppm) is on record as 0 (0-10); in the assay on Boll Weevil (25 ppm) it was 6.5; in the assay on Boll Weevil (50 ppm), 7.5; in the assay with Boll Weevil (100 ppm) it was 8 (81-90); with Boll Weevil (250 ppm), 8.5; in the assay with Boll Weevil (500 ppm), 9 (91-100). Besides, in the assay with Boll Weevil (1000 ppm), the mortality rating was 9 (91-100).
`CCOC(=O)n1c(C(F)(F)F)nc2c([N+](=O)[O-])cc(C(F)(F)F)cc21` [G, ethyl 2,6-bis(trifluoromethyl)-4-nitro-1-benzimidazolecarboxylate]: the mortality rating with Oriental Cockroach (1000 ppm) is 5.5.
